These results are taken from PMC9033836, “Determination of key residues in MRGPRX2 to enhance pseudo-allergic reactions induced by fluoroquinolones” (Scientific Reports, 2022).

Changes are numbered by the printed parent chain.

Holding throughout (test): intracellular calcium mobilisation (FLIPR Tetra), transiently transfected HEK293
Common to all, as to format: cell-based
For orientation: Calcium flux is commonly read through the fluorescence of an indicator in the cells.

The target of test [1] is T1, dog MRGPRX2 (Canis lupus, UniProt A0A4Y5P885).
T1 construct: gene in pcDNA3.1(+), transiently transfected HEK293 cells (JCRB)
T1 sequence (A0A4Y5P885 1-417): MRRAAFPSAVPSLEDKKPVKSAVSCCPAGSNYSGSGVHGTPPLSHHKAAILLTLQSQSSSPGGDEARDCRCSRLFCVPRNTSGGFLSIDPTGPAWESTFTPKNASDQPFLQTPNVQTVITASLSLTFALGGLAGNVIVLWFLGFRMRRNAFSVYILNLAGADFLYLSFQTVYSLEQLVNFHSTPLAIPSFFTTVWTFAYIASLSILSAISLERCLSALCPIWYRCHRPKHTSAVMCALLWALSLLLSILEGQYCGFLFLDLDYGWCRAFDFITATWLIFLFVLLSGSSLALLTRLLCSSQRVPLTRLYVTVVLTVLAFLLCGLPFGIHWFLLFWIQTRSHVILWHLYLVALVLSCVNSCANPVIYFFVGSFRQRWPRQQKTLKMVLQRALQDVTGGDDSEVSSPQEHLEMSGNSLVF
The conditions noted are these: read-out: EC50 (μg/mL) ± SD (P value) / Dog / Wild type (converted). The source says:
intracellular calcium mobilisation (FLIPR Tetra), transiently transfected HEK293 on dog MRGPRX2

Test [2] addresses T2, human MRGPRX2 (Homo sapiens, UniProt Q96LB1).
T2 construct: full-length gene in pcDNA3.1(+), transiently transfected HEK293 cells (JCRB)
T2 sequence (Q96LB1 1-330): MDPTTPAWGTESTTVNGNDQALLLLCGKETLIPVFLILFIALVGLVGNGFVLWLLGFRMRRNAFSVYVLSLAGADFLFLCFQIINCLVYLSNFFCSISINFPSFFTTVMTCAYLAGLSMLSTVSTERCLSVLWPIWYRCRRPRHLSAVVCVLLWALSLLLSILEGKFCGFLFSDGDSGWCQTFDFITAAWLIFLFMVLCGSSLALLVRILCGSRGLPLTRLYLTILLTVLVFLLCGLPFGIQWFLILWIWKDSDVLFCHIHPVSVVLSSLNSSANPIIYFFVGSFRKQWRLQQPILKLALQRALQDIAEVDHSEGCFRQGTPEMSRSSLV
The conditions noted are these: highest concentration of fluoroquinolones 1000 µg/mL; HBSS pH 7.4, 20 mM HEPES, 0.05% BSA.

Test [3] addresses T1, dog MRGPRX2. The conditions noted are these: highest concentration of fluoroquinolones 1000 µg/mL; HBSS pH 7.4, 20 mM HEPES, 0.05% BSA.
Test [4] has as its target T2, human MRGPRX2. As to conditions: read-out: EC50 (μg/mL) ± SD (P value) / Human / Wild type (converted). The source says:
(§1) intracellular calcium mobilisation (FLIPR Tetra), transiently transfected HEK293 on human MRGPRX2

The target in test [5] is T3, human MRGPRX2 (Homo sapiens, UniProt Q96LB1, F78Y).
T3 construct: full-length gene in pcDNA3.1(+), transiently transfected HEK293 cells (JCRB)
T3 sequence (Q96LB1 1-330 F78Y): T2 sequence (Q96LB1 1-330) with F78Y
The conditions noted are these: read-out: EC50 (μg/mL) ± SD (P value) / Human / F78Y (converted).
Text: as §1

The target in test [6] is T4, human MRGPRX2 (Homo sapiens, UniProt Q96LB1, F78Y/M109W).
T4 construct: full-length gene in pcDNA3.1(+), transiently transfected HEK293 cells (JCRB)
T4 sequence (Q96LB1 1-330 F78Y/M109W): T2 sequence (Q96LB1 1-330) with F78Y, M109W
The conditions noted are these: read-out: EC50 (μg/mL) ± SD (P value) / Human / F78Y/M109W (converted).
Text: as §1

The target of test [7] is T5, human MRGPRX2 (Homo sapiens, UniProt Q96LB1, M109W).
T5 construct: full-length gene in pcDNA3.1(+), transiently transfected HEK293 cells (JCRB)
T5 sequence (Q96LB1 1-330 M109W): T2 sequence (Q96LB1 1-330) with M109W
As to conditions: read-out: EC50 (μg/mL) ± SD (P value) / Human / M109W (converted).
Text: as §1

On to `O=C(O)c1cn(C2CC2)c2cc(N3CCNCC3)c(F)cc2c1=O` [CPFX], for which, on dog MRGPRX2 [1], the EC50 is 36.2 µM.

For `C[C@H]1COc2c(C3(N)CC3)c(F)cc3c(=O)c(C(=O)O)cn1c23` [PZFX], the “intracellular calcium mobilisation (FLIPR Tetra), transiently transfected HEK293” value at human MRGPRX2 [2] and on dog MRGPRX2 [3] was “PZFX ... did not induce intracellular calcium mobilisation in any of the cells” throughout.

`COc1c(N2CCNC(C)C2)c(F)cc2c(=O)c(C(=O)O)cn(C3CC3)c12` (stereo not shown) [GFLX]: the EC50 on dog MRGPRX2 [1] is 258 µM; at human MRGPRX2 [4] it was 959 µM; at human MRGPRX2 [5], 666 µM; at human MRGPRX2 [6] it was 197 µM; on human MRGPRX2 [7], 266 µM.

Take `C[C@H]1COc2c(N3CCN(C)CC3)c(F)cc3c(=O)c(C(=O)O)cn1c23` [LVFX]: the EC50 at dog MRGPRX2 [1] is 249 µM; on human MRGPRX2 [4], 1800 µM; at human MRGPRX2 [5], 1380 µM; on human MRGPRX2 [6] it was 498 µM; at human MRGPRX2 [7] it was 581 µM.
